Measurements: patent US20110294803A1, “PHOSPHATIDYLINOSITOL-3-KINASE P110 DELTA-TARGETED DRUGS IN THE TREATMENT OF CNS DISORDERS” (priority 2008, published 2011)
Entries after “also recorded” stand apart in the source; their conditions may differ.

Assays:
[1] = tested on: PIK3CD mRNA; assay: PIK3CD mRNA expression in hippocampus of rats treated chronically with haloperidol; type: in vivo, rat; conditions: haloperidol 0.08 or 0.6 mg/kg/day i.p. once daily for 28 days, compared to untreated rats; F(2,22)=9.45, p=0.001
Description: (§1) To explore this hypothesis, rats treated chronically with haloperidol, a standard antipsychotic drug, were tested for PIK3CD expression in the brain. Male Sprague-Dawley rats (weight 250 g) were on a 12-h light/dark cycle (lights on/off 0600 hours/1800 hours) in a temperature-controlled environment and with access to food and water. Rats were randomly assigned to drug treatment groups (8 per dose) and administered intraperitoneal injections of haloperidol (0.08 or 0.6 mg/kg/day) or vehicle (0.02% lactic acid) once daily for 28 days. Haloperidol (20 mg/ml) was prepared in 1% lactic acid, diluted with water, and neutralized with 1M NaOH to obtain pH 5.3. Rats were euthanized 7 h after the last injection. Brains were dissected and frozen at −80° C. PIK3CD, PIK3R3, ErbB4, and ErbB3 mRNA expression was determined in rat hippocampus using methods described above. Association of mRNA expression with haloperidol treatment was analyzed by ANOVA.

[2] = tested on: PIK3R3 mRNA; assay: PIK3R3 mRNA expression in hippocampus of rats treated chronically with haloperidol; type: in vivo, rat; conditions: haloperidol 0.08 or 0.6 mg/kg/day i.p. once daily for 28 days
Description: as §1

[3] = tested on: ErbB4 mRNA; assay: ErbB4 mRNA expression in hippocampus of rats treated chronically with haloperidol; type: in vivo, rat; conditions: haloperidol 0.08 or 0.6 mg/kg/day i.p. once daily for 28 days
Description: as §1

[4] = tested on: ErbB3 mRNA; assay: ErbB3 mRNA expression in hippocampus of rats treated chronically with haloperidol; type: in vivo, rat; conditions: haloperidol 0.08 or 0.6 mg/kg/day i.p. once daily for 28 days
Description: as §1

[5] = tested on: Human B-lymphoblast cells (LCLs); assay: NRG1-induced lymphocyte (LCL) migration, Transwell assay; type: cell-based; conditions: 0.1 uM, 60 min preincubation; LCLs of normal individuals and patients with schizophrenia; NRG-1 200 ng/ml, 4 hours
Description: The cellular phenotype is migration of lymphocytes to the chemoattractant, Neuregulin (NRG1), a key regulator of brain development. NRG1 induced LCL migration is diminished in patients with schizophrenia.
Human B-lymphoblast cells were cultured in RPMI 1640 without L-Glutamine medium (Quality Biological, Inc.) supplemented with 15% fetal bovine serum (FBS), 1% Penicillin-streptomycin, and 2% L-Glutamine in a 5% CO2 incubator at 37° C. Prior to performing migration assay, cells were incubated for 16-18 hours in the same culture, lowering the concentration of FBS to 2%. […] Following incubations, cells were seeded into the top chamber of the HTS […] Transwell®-96 Cell Migration plate (Corning) at 4×10^5 cell/well concentration in a 50 μl volume. NRG-1 serum free RPMI solution with antibiotics and L-Glutamine supplements (NRG-1 200 ng/ml; 160 μl) was added to the bottom chamber and incubated for 4 hours at 37° C. 75 μl of the bottom chamber fraction was collected and combined with 25 μl of cyquant/lysis buffer reagent (according to Invitrogen protocol) for 15 min at RT and in the dark, and then read with a Wallac 1420 VICTOR3 multilabel plate reader under standard fluorescein (485 nm/535 nm, 1.0 s) protocol.

[6] = Passive blood-brain barrier permeability analysis by partitioning (Analiza); type: physicochemical
Description: For compounds to be clinically useful to treat CNS disorders, they should penetrate the blood-brain barrier (BBB). […] The degree of BBB penetration is measured as the ratio of the steady-state concentrations of the drug in the brain and in the blood, expressed as log(Cbrain/Cblood) or log BB. Compounds with logBB>0.3 (i.e. Cbrain/Cblood>2.0) cross the BBB readily. From these studies, IC87114 represents one of these compounds.
BBB analysis was performed using Analiza assays: Based upon a method described previously, a combination of two descriptors representing the lipophilicity (as measured by octanol-buffer partitioning, logD7.4) and relative hydrophobicity (as measured by aqueous two-phase partitioning (ATPPS), N(CH2)) of organic compounds was used to determine if that compound will permeate the blood-brain barrier.
Sample Preparation: One sample was received as 10 mM stock solutions in Dimethyl sulfoxide (DMSO) frozen on dry ice in a microtube. […]
Partitioning Experiments: Partitioning in an aqueous dextran-polyethylene glycol (Dex-PEG) two-phase system containing 0.15M NaCl in 0.01M sodium phosphate buffer at pH 7.4 was performed with an Automated Signature Workstation (Analiza, Inc. Cleveland, Ohio). […] Relative Hydrophobicity (N(CH2)) is then calculated from this partition coefficient. […] Relative Hydrophobicity (N(CH2) is then calculated from this partition coefficient. […]

[7] = tested on: C57BL/6J mice; assay: Amphetamine-induced locomotor activity in open field, normal mice; type: in vivo, mouse; conditions: IC87114 0.1 mg/kg i.p. pretreatment; D-amphetamine 0.75 or 1.5 mg/kg i.p.; male C57BL/6J mice
Description: (§2) Subjects. C57BL/6J mice were purchased from The Jackson Laboratory at 8 weeks old. All mice were group-housed (4/cage) in a climate-controlled animal facility (22±2° C.) and maintained on a 12-hr light/dark cycle, with free access to food and water. Testing was conducted in male mice, at ages 2-3 months, during the light phase of the circadian cycle. Mice were handled by the experimenter on alternate days during the week preceding the tests. At least one hour before any test manipulation, mice were habituated in a room adjacent to the testing room.
On day 3, mice were tested in the same experimental apparatus and conditions as on day 1. […] During the first 10-minute session mice were placed in the same empty open field as day 1. Immediately after, mice were removed from the field and given an injection of D-amphetamine sulphate (either 0.75 mg/kg or 1.5 mg/kg, i.p., Sigma-Aldrich, St. Louis, Mo., USA). They were then placed back in the same open field and allowed to explore for an additional 75 minutes. Amphetamine was dissolved in physiological saline and injected in a volume of 10 ml/kg.
Statistical analysis. Results were expressed as mean±standard error of the mean (S.E.M.) throughout. Student T-test, Two- or Three-Way analysis of variance (ANOVA) was used. Post-hoc analyses for individual group comparisons employed Newman-Keuls analyses.

[8] = tested on: C57BL/6J mice; assay: Baseline locomotor activity in open field; type: in vivo, mouse; conditions: IC87114 0.1 mg/kg i.p., male C57BL/6J mice, no amphetamine
Description: as §2
Mice were tested on day 1 in an experimental apparatus consisting of four Plexiglas Digiscan automated open fields (Accuscan; 42×42×30 cm dimensions). One red light (5±2 lux) was placed overhead, evenly illuminating each open field. Each apparatus contained photobeam sensors to measure the exploratory and locomotor activity of the mice. During the first 10-minute session, mice were placed in the empty open field and allowed to explore the arena. […] They were then place back in the same open field for an additional 75 minutes. All sessions were videotaped. […] “Vehicle-treated” mice were injected with the same volume of 0.25% DMSO in saline physiological saline.
Statistical analysis. Results were expressed as mean±standard error of the mean (S.E.M.) throughout. Student T-test, Two- or Three-Way analysis of variance (ANOVA) was used. […]

[9] = tested on: COMT*dysbindin double knockout mice; assay: Amphetamine-induced stereotypy in a genetic mouse model of schizophrenia; type: in vivo; conditions: IC87114 0.1 mg/kg i.p. pretreatment, D-amphetamine 1.5 mg/kg i.p.
Source text: Subjects. All procedures were approved by the NIMH Animal Care and Use Committee and followed the NIH Guidelines “Using Animals in Intramural Research.” To derive the double knockout mice, the lines of COMT knockout mice and dysbindin knockout mice previously described were used. COMT*dysbindin double knockout mice (COMT−/− dys−/−) were littermates and bred by double heterozygote mating (dCOMT+/−dys+/− with cCOMT+/−dys+/−). Mice were identified by PCR analysis of tail DNA. Mice were group-housed (2-4/cage) in a climate-controlled animal facility (22±2° C.) and maintained on a 12-hr light/dark cycle, with free access to food and water. Testing was conducted in male mice, 7 months old, during the light phase. Experimenters were blind to the genotype during behavioral testing. Mice were handled by the experimenter on alternate days during the week preceding the tests. At least one hour before any test manipulation, mice were habituated in a room adjacent to the testing room.
Stereotypy behavior with IC87114 and Amphetamine Treatment. […] Stereotypy was scored from videotapes by an observer blind to the treatments and genotype conditions of each mouse. […]
Statistical analysis. Results were expressed as mean±standard error of the mean (S.E.M.) throughout. […]

| Structure (SMILES) | expression of PIK3CD mRNA in rat hippocampus [1] | PIK3R3 mRNA expression in rat hippocampus [2] | ErbB4 mRNA expression in rat hippocampus [3] | ErbB3 mRNA expression in rat hippocampus [4] | LCL migration in response to NRG-1 stimulation [5] | logBB (log(Cbrain/Cblood)) ([6]; calculated from partitioning data) | Kp ([6]; not told, calculated from log D (octanol-buffer, pH 7.4) and N(CH2) (aqueous two-phase partitioning), read-out: Cbrain/Cblood) | amphetamine-induced hyperlocomotion (distance traveled during 75 minutes) [7] | baseline locomotor activity (distance traveled during 75 minutes) [8] | amphetamine-induced stereotypy [9] |
| --- | --- | --- | --- | --- | --- | --- | --- | --- | --- | --- |
| O=C(CCCN1CCC(O)(c2ccc(Cl)cc2)CC1)c1ccc(F)cc1 [haloperidol] | decreases expression of PIK3CD mRNA | did not affect | did not affect | did not affect | – | – | – | – | – | – |
| Cc1ccccc1-n1c(Cn2cnc3c(N)ncnc32)nc2cccc(C)c2c1=O [IC87114] | – | – | – | – | Rescues a Cellular Phenotype Related to Schizophrenia; also recorded: significantly improve LCL migration | > 0.3 | > 2 | reduces amphetamine-induced hyperlocomotion; also recorded: reduces amphetamine induced locomotor abnormalities; also recorded: blocked the amphetamine-induced increase in locomotor activity | no effect on baseline locomotor activity; also recorded: without affecting baseline behavior; also recorded: did not show any drug-treatment effect | dramatically reduces amphetamine-induced stereotypy; also recorded: diminished |
